Values quoted from earlier work as cited in PMC3404106, “Pharmacology of DB844, an Orally Active aza Analogue of Pafuramidine, in a Monkey Model of Second Stage Human African Trypanosomiasis” (PLoS Neglected Tropical Diseases, 2012).

Tested on: GVR35 CNS model of HAT
Set-up: method as in PMID 19620327
Conditions: cited from earlier work

CONC(=N)c1ccc(-c2ccc(-c3ccc(C(=N)NOC)cn3)o2)cc1 [DB844, N-methoxy-6-{5-[4-(N-methoxyamidino)phenyl]-furan-2-yl}-nicotinamidine]
cure of 2nd stage experimental murine HAT infection (DB844 at 100 mg/kg): curative | animals cured (mice, oral DB844 (100 mg/kg×5 days)): 5/5
